Results: patent US20230310428A1, “EGFR INHIBITOR AND PREPARATION METHOD AND USE THEREOF” (HONGYUN BIOTECH CO., LTD., priority 2020, published 2023)

Assays:
Assay in all cases: Growth inhibitory activity of compounds on BaF3 cell lines stably transfected with kinase (MTS, 48 h)
Assay type in all cases: cell-based
[1] = target: T1, various mutants of kinase EGFR (BaF3 cell lines stably transfected with kinase) (Homo sapiens, UniProt P00533); conditions: BaF3 cell line stably transfected with EGFR Δ19Del, read-out: Δ19Del growth inhibitory activity IC50
T1 construct: other: BaF3 cells stably transfected with EGFR Δ19Del; MTS, 48 h; other: BaF3 cell line stably transfected with EGFR Δ19Del
Procedure, shortened: (§1)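 Cells in DMEM or RPMI 1640 with 10% FBS were exposed to compound at 8 concentrations (top 10 µM, 1/3 steps, 0.1% DMSO) for 48 h at 37 °C, 5% CO2. MTS/PES was then added for 1-4 h and OD490 read; IC50 was fitted from growth inhibition versus 0.1% DMSO control.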

[2] = target: T2, various mutants of kinase EGFR (BaF3 cell lines stably transfected with kinase) (Homo sapiens, UniProt P00533, C797S/L858R/T790M); conditions: BaF3 cell line stably transfected with EGFR L858R/T790M/C797S, read-out: L858R/T790M/ C797S growth inhibitory activity IC50
T2 construct: expressed in transfected cells; host or cells: BaF3
T2 sequence (P00533 25-1210 T790M/C797S/L858R): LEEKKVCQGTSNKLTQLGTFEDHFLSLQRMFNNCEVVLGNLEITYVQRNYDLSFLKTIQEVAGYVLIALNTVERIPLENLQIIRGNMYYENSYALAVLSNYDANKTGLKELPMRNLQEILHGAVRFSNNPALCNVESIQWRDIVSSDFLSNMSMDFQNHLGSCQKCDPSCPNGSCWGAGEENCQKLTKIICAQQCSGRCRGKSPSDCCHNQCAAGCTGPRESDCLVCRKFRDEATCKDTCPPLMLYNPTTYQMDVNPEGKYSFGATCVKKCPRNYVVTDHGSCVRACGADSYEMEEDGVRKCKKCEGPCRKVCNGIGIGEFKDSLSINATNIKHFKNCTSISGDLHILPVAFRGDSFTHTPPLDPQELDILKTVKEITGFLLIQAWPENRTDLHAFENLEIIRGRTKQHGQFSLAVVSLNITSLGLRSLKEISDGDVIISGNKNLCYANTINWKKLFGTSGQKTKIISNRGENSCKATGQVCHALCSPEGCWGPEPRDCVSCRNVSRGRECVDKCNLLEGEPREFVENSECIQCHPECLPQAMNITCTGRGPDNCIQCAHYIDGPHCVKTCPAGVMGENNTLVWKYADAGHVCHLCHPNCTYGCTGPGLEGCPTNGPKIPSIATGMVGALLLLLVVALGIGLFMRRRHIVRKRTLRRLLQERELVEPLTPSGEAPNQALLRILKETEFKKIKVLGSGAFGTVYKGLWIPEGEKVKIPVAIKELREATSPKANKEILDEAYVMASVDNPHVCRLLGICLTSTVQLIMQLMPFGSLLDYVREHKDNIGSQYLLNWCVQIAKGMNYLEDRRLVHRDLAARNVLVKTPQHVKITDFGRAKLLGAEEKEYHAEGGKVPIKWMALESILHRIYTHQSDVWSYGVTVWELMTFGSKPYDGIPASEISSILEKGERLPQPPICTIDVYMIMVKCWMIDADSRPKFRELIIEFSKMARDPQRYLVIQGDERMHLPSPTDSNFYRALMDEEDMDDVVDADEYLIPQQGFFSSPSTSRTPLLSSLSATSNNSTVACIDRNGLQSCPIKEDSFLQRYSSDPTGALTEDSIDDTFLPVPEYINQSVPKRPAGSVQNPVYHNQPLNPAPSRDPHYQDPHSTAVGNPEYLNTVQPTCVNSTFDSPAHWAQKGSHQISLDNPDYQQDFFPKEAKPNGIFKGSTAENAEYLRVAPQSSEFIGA
Procedure, shortened: as §1

[3] = target: T3, various mutants of kinase EGFR (BaF3 cell lines stably transfected with kinase) (Homo sapiens, UniProt P00533, L858R); conditions: BaF3 cell line stably transfected with EGFR L858R, read-out: L858R growth inhibitory activity IC50
T3 construct: expressed in transfected cells; host or cells: BaF3
T3 sequence (P00533 25-1210 L858R): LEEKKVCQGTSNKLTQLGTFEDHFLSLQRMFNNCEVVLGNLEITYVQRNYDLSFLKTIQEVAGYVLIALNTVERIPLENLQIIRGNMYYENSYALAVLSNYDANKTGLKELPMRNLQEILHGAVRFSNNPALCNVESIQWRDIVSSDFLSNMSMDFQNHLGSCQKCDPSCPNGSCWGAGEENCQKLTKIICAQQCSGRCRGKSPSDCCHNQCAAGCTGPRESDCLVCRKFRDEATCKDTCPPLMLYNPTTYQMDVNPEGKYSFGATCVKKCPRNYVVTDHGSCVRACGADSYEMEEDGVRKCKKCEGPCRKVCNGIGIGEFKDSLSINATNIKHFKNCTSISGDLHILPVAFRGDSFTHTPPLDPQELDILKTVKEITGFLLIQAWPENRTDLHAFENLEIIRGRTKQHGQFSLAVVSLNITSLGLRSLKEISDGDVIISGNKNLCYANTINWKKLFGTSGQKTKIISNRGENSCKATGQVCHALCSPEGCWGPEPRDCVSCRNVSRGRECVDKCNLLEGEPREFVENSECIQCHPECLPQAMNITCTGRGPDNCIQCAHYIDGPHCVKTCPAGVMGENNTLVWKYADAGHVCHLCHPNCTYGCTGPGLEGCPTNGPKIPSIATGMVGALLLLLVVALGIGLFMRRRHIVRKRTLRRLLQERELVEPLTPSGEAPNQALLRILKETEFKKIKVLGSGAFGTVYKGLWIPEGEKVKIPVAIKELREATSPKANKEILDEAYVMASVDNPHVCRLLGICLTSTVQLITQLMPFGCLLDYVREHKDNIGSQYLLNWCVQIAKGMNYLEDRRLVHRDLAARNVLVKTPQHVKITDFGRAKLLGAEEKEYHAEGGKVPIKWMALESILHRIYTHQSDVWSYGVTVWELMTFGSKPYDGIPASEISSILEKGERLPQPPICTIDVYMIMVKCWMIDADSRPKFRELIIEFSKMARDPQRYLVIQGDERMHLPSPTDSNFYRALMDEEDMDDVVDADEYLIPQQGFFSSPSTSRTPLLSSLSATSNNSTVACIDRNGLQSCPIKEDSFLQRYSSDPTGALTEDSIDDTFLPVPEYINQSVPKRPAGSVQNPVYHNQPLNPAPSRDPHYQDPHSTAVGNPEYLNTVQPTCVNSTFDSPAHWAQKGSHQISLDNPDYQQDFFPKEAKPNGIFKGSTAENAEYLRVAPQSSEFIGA
Procedure, shortened: as §1

[4] = target: T4, various mutants of kinase EGFR (BaF3 cell lines stably transfected with kinase) (Homo sapiens, UniProt P00533, L858R/T790M); conditions: BaF3 cell line stably transfected with EGFR L858R/T790M, read-out: L858R/ T790M growth inhibitory activity IC50
T4 construct: expressed in transfected cells; host or cells: BaF3
T4 sequence (P00533 25-1210 T790M/L858R): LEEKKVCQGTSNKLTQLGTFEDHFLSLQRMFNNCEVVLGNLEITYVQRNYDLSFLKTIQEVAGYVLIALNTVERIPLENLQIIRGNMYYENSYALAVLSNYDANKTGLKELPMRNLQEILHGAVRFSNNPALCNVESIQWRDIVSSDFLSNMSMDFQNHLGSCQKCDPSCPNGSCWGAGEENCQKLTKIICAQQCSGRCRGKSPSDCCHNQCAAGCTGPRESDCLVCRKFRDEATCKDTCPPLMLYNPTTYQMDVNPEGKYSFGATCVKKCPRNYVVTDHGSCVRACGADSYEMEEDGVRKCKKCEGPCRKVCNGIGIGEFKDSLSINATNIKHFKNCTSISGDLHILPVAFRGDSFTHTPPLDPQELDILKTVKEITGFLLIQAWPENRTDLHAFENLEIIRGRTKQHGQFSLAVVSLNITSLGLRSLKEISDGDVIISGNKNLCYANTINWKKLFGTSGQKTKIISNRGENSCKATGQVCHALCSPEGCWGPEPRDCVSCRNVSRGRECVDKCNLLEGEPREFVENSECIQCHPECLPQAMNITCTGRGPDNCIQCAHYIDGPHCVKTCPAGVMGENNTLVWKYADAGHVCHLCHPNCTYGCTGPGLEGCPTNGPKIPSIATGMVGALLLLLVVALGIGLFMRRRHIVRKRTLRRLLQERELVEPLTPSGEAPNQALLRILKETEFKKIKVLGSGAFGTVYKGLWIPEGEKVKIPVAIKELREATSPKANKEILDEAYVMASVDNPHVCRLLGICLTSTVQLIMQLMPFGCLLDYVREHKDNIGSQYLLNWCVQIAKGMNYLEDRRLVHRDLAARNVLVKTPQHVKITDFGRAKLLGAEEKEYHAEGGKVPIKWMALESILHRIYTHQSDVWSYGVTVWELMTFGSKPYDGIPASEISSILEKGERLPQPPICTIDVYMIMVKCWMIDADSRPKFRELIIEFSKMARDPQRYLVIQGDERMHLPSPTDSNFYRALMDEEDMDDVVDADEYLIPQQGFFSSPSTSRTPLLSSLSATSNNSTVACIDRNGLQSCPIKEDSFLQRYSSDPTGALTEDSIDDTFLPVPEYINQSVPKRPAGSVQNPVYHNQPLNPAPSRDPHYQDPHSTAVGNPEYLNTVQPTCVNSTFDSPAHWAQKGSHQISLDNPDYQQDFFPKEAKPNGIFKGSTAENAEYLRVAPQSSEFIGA
Procedure, shortened: as §1

[5] = target: T5, various mutants of kinase EGFR (BaF3 cell lines stably transfected with kinase) (Homo sapiens, UniProt P00533, T790M/C797S, form not given); conditions: BaF3 cell line stably transfected with EGFR Δ19Del/T790M/C797S, read-out: Δ19Del/T790M/ C797S growth inhibitory activity IC50
T5 construct: other: BaF3 cells stably transfected with EGFR Δ19Del/T790M/C797S; MTS, 48; other: BaF3 cell line stably transfected with EGFR Δ19Del/T790M/C7
Procedure, shortened: as §1

[6] = target: T6, various mutants of kinase EGFR (BaF3 cell lines stably transfected with kinase) (Homo sapiens, UniProt P00533, T790M, form not given); conditions: BaF3 cell line stably transfected with EGFR Δ19Del/T790M, read-out: Δ19Del/ T790M growth inhibitory activity IC50
T6 construct: other: BaF3 cells stably transfected with EGFR Δ19Del/T790M; MTS, 48 h; other: BaF3 cell line stably transfected with EGFR Δ19Del/T790M; MTS, 48
T6 sequence (P00533 with tags, fused parts or gaps DEL746-750/T790M, form open): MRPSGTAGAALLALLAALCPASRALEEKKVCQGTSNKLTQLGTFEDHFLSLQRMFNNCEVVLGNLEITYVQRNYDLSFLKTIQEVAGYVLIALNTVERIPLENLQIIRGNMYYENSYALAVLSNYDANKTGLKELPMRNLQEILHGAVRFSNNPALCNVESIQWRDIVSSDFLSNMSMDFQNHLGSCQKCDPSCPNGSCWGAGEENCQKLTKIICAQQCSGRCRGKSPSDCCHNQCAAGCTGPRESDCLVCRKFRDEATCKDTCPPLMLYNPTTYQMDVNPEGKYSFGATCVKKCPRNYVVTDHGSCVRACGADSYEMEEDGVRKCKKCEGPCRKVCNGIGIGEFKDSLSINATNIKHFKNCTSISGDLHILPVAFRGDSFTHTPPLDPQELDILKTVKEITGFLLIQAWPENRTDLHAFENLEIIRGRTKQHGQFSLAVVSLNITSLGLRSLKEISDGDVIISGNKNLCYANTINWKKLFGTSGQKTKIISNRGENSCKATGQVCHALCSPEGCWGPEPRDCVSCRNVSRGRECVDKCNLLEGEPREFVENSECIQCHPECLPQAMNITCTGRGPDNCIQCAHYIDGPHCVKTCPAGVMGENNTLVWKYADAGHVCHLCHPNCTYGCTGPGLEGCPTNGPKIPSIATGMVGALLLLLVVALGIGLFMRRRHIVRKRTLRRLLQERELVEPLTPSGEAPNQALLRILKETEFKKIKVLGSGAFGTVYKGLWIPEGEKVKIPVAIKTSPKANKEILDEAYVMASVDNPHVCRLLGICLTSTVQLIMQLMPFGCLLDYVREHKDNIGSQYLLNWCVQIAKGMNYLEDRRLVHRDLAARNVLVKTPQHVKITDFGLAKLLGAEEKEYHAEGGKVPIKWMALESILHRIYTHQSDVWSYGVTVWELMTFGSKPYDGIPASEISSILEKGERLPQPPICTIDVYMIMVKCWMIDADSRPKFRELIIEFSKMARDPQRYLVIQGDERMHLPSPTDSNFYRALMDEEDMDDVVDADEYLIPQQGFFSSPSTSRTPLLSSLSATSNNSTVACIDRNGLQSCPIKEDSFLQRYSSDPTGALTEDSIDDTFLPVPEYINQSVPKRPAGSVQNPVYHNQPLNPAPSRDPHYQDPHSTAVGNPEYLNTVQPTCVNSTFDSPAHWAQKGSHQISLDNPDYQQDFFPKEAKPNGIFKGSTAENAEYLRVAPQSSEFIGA
Procedure, shortened: as §1

Structure (SMILES) | IC50 [1] [µM] | IC50 [2] [µM] | IC50 [3] [µM] | IC50 [4] [µM] | IC50 [5] [µM] | IC50 [6] [µM]
CCN(c1c(Nc2nc(Nc3cc(N4CCC(O)CC4)ccc3OC)ncc2Br)ccc2nccnc12)S(C)(=O)=O [Compound I-378] | 0.05 to 0.5 | ≤ 0.05 | 0.05 to 0.5 | ≤ 0.05 | ≤ 0.05 | ≤ 0.05
COc1ccc(N2CCC(O)CC2)cc1Nc1ncc(Cl)c(Nc2ccc3nccnc3c2N(C2CC2)S(C)(=O)=O)n1 [Compound I-379] | ≤ 0.05 | ≤ 0.05 | ≤ 0.05 | ≤ 0.05 | ≤ 0.05 | ≤ 0.05
COc1ccc(N2CCC(O)CC2)cc1Nc1ncc(Br)c(Nc2ccc3nccnc3c2N(C2CC2)S(C)(=O)=O)n1 [Compound I-380] | ≤ 0.05 | ≤ 0.05 | ≤ 0.05 | ≤ 0.05 | ≤ 0.05 | ≤ 0.05
CN(c1c(Nc2nc(Nc3cccc(N4CCC(N5CCCC5)CC4)c3)ncc2Br)ccc2nccnc12)S(C)(=O)=O [Compound I-381] | 0.05 to 0.5 | ≤ 0.05 | 0.05 to 0.5 | ≤ 0.05 | 0.05 to 0.5 | ≤ 0.05
COc1ccc(N2CCC(N3CCCC3)CC2)cc1Nc1ncc(Br)c(Nc2ccc3nccnc3c2N(C)S(C)(=O)=O)n1 [Compound I-382] | 0.05 to 0.5 | ≤ 0.05 | 0.05 to 0.5 | ≤ 0.05 | 0.05 to 0.5 | 0.05 to 0.5
CCn1ccc(Nc2ncc(Br)c(Nc3ccc4nccnc4c3N(C)S(C)(=O)=O)n2)n1 [Compound I-383] | 0.05 to 0.5 | ≤ 0.05 | 0.05 to 0.5 | 0.05 to 0.5 | 0.05 to 0.5 | 0.05 to 0.5
CC(C)n1ccc(Nc2ncc(Br)c(Nc3ccc4nccnc4c3N(C)S(C)(=O)=O)n2)n1 [Compound I-384] | 0.5 to 2.5 | 0.05 to 0.5 | 0.5 to 2.5 | 0.05 to 0.5 | 0.05 to 0.5 | 0.05 to 0.5
Cc1cc(Nc2ncc(Br)c(Nc3ccc4nccnc4c3N(C)S(C)(=O)=O)n2)nn1C [Compound I-385] | 0.5 to 2.5 | ≤ 0.05 | 0.5 to 2.5 | 0.5 to 2.5 | 0.05 to 0.5 | 0.5 to 2.5
CCn1cc(Nc2ncc(Br)c(Nc3ccc4nccnc4c3N(C)S(C)(=O)=O)n2)cn1 [Compound I-386] | 0.05 to 0.5 | 0.05 to 0.5 | 0.05 to 0.5 | 0.05 to 0.5 | ≤ 0.05 | 0.05 to 0.5
CCn1cc(Nc2ncc(Br)c(Nc3ccc4nccnc4c3N(C)S(C)(=O)=O)n2)c(C)n1 [Compound I-387] | 0.5 to 2.5 | 0.05 to 0.5 | 0.5 to 2.5 | 0.05 to 0.5 | 0.05 to 0.5 | 0.5 to 2.5
CC(C)n1cc(Nc2ncc(Br)c(Nc3ccc4nccnc4c3N(C)S(C)(=O)=O)n2)cn1 [Compound I-388] | 0.05 to 0.5 | ≤ 0.05 | 0.05 to 0.5 | ≤ 0.05 | ≤ 0.05 | 0.05 to 0.5
CCc1cc(Nc2ncc(Br)c(Nc3ccc4nccnc4c3N(C)S(C)(=O)=O)n2)c(OC)cc1F [Compound I-389] | 0.5 to 2.5 | 0.05 to 0.5 | 0.5 to 2.5 | 0.5 to 2.5 | 0.5 to 2.5 | 0.5 to 2.5
CCc1cc(Nc2ncc(Br)c(Nc3ccc4nccnc4c3N(C)S(C)(=O)=O)n2)c(OC)cc1NCCO [Compound I-390] | 0.5 to 2.5 | ≤ 0.05 | 0.05 to 0.5 | 0.05 to 0.5 | 0.05 to 0.5 | 0.05 to 0.5
CCc1cc(Nc2ncc(Br)c(Nc3ccc4nccnc4c3N(C)S(C)(=O)=O)n2)c(OC)cc1NCCN(C)C [Compound I-391] | 0.05 to 0.5 | ≤ 0.05 | 0.05 to 0.5 | 0.05 to 0.5 | ≤ 0.05 | 0.05 to 0.5
CCc1cc(Nc2ncc(Br)c(Nc3ccc4nccnc4c3N(C)S(C)(=O)=O)n2)c(OC)cc1N(C)CCN(C)C [Compound I-392] | 0.05 to 0.5 | ≤ 0.05 | 0.05 to 0.5 | 0.05 to 0.5 | ≤ 0.05 | 0.05 to 0.5
